From US6506893B1, “Polynucleotides and their use for detecting resistance to streptogramin A or to streptogramin B and related compounds” (priority 1997, dated 2003)

Legend:
[1] = tested on: S. aureus recipient RN4220 transformants with pIP1717; experiment: MIC by serial twofold dilutions in MHA, S. aureus RN4220 transformants carrying pIP1717 (vgaB); format: cell-based; details: Staphylococcus aureus; S. aureus RN4220 transformants with pIP1717 (2.4 kb HindIII-HaeIII fragment carrying vgaB), selected on 10 μg/ml erythromycin; read-out: PIIA MICs
Text: First, the 2.4 kb HindIII-HaeIII fragment of pIP 1675, which contains only 10 nucleotide from vatB, was inserted into plasmid pOX300, and the recombinant plasmid, pIP1717 (FIG. 1B), was introduced by electroporation into the S. aureus recipient, RN4220 (Kreiswirth et al., 1983). Plasmid pOX300, also named pOX7, (Dyke and Curnock, 1989), is a hybrid of pUC18 and pE194ts and replicates in E. coli where it confers resistance to ampicillin and to erythromycin, and in S. aureus where only resistance to erythromycin is expressed. The S. aureus transformants selected on 10 μg/ml erythromycin were resistant to streptogramin A and related compounds (PIIA MICs=8-16 μg/ml). Thus, the 2.4-kb HindIII-HaeIII insert of pIP1717 (FIG. 1B) probably carried a streptogramin A resistance gene and was sequenced. The nucleotide (nucleotide) sequence of this fragment was determined by the dideoxy method (Sanger et al., 1977) with the reagents and the procedure recommended by the suppliers of the T^7 sequencing kit (Pharmacia International). Arrows indicate the direction and extent of each dideoxy-sequencing reaction. (FIG. 1B).
(§1) Minimal inhibitory concentrations (MICs) of antibiotics were determined by serial twofold dilutions of antibiotics in MHA (Ericson H. M. and S. C. Sherris, ActaPathol. Microbiol. Scand., 1971, Suppl. 217:Section B).

[2] = tested on: Staphylococci resistant to synergistic mixtures of A and B compounds; details: Allignet et al., 1996; cited from earlier work
[3] = tested on: S. aureus recipient strain RN4220 transformant harboring pIP1714; experiment: Susceptibility to antimicrobial agents, S. aureus RN4220 transformant harboring pIP1714 (vatC, vgbB); format: cell-based, Staphylococcus aureus; details: RN4220 transformant with pIP1714, selected on BHIA with 10 μg/ml pristinamycin IIA
Procedure: The strain BM10711 harbored several plasmids including pIP1714 (5kb). This plasmid was […] by electroporation in a S. aureus recipient strain, RN4220. The transformant, harboring pIP1714, was selected on BHIA containing 10 μg/ml pristinamycin IIA.
Susceptibility to antimicrobial agents was determined with a disk diffusion assay and commercially available disks (Diagnostic Pasteur). Additional disks prepared in our laboratory contained streptogramin A (20 μg) or streptogramin B (40 μg).
as §1

| Compound | MIC [1] | MIC [2] | resistance conferred by plasmid [3] |
| --- | --- | --- | --- |
| CC1=C\[C@@H](O)CC(=O)Cc2nc(co2)C(=O)N2CCC=C2C(=O)O[C@H](C(C)C)[C@H](C)/C=C/C(=O)NC\C=C\1 [PIIA, pristinamycin IIA] | 8 to 16 µg/mL | ≥ 8 µg/mL | – |
| streptogramin A | – | – | resistances |
| streptogramin B | – | – | resistances |
